One experiment has as its system liver TRM cells. Kind of experiment: LPX-mOVA-CI058 vaccination of NKT cell-deficient mice; liver TRM cells. In kind it is in vivo, TRAJ18-deficient mice. To be noted: LPX vaccine with CI058, 28 days after vaccination. Here is the method:
Groups (n=3) of C57BL/6 mice or TRAJ18-deficient mice were vaccinated with LPX-mOVA-CI058, or injected with PBS vehicle. The TRAJ18-deficient strain cannot complete the TCR rearrangement required to form the TCR-alpha chain used by type I NKT cells, and therefore are deficient in these cells, while the remaining T cell repertoire is largely intact. No prior transfer of OT-I cells was conducted, so results reflect endogenous T cell responses to vaccination. Mean number of TRM cells in liver 28 days after vaccination for each treatment group (±SEM) are shown; dots represent individual mice. **P<0.01,
C57BL/6 (B6), OT-I^1, and TRAJ18^−/− mice were bred and maintained at the Department of Microbiology and Immunology, The University of Melbourne, or the BRU, Malaghan Institute of Medical Research, New Zealand. […]
Lymphocytes were stained with monoclonal antibodies for: CD8a (53-6.7), Ly5.1 (A20), CD44 (IM7), CXCR6 (SA051D1), CX3CR1 (SA011F11), from BioLegend (Australian Biosearch, Karrinyup, WA. Australia), and CD62L (MEL-14) and CD69 (H1.2F3), from eBioscience (Jomar Life Research, Scoresby, VIC, Australia). […] Single-color positive control samples were used to adjust compensation and cells were analyzed by flow cytometry on a LSR Fortessa (BD Biosciences), or LSRII SORP using Flowjo software (Tree Star Inc.).

In experiment [1] the test system is tissue-resident memory T cells (TRM cells). In words: LPX-mRNA vaccination of mice i.v.; antigen-specific TRM, TEM and TCM cells in liver and spleen by flow cytometry. In kind it is in vivo, C57BL/6 mice.
Experiment [2] concerns Plasmodium berghei sporozoites. Kind of experiment: Mouse model of malaria infection: sporozoite challenge after vaccination. The experiment is classed as in vivo. The procedure: FIG. 3 provides a graphical representation showing that LPX-mRNA vaccines containing CI058 induce functional liver TRM responses that protect from Plasmodium berghei infection. The function of TRM induced with LPX vaccines containing CI058 was tested in a mouse model of malaria infection, which is known to require liver TRM cells to provide protection against infection. Analysis was in C57BL/6 mice with LPX-mOVA versus LPX-mOVA-CI058 vaccines, with prior transfer of OT-I cells to enhance T cell precursor frequency, and challenge was with P. berghei sporozoites from a parasite strain modified to express OVA. (A) Groups of mice (n=12-15) were subject to vaccination only. Percentages of TRM, TEM and TCM OT-I cells in each treatment group determined in liver 30 days later, assessed as in FIG. 1. Black bars: TRM cells; white bars: TEM cells; grey bars: TCM cells. […] (D) Groups of mice were subject to vaccination followed by challenge with 200 OVA-expressing P. berghei sporozoites 30 days later, and parasitemia was measured 6, 7,8, 10 and 12 days after infection. […] Groups of mice (n=12-15) were subject to vaccination, and then percentages of TRM cells, TEM cells and TCM cells in each treatment group were evaluated in liver 30 days later by flow cytometry using MHC/peptide tetramers containing a defined CD8 T cell epitope from RLP6, using gating strategy in FIG. 2. […]

Consider `CCCCCCCCCCCCCCCCCCCCCCCCCC(=O)N[C@@H](CO[C@H]1O[C@H](CSCC(=O)Nc2ccc(C3=C4C(C)=CC(C)=[N+]4[B-](F)(F)n4c(C)cc(C)c43)cc2)[C@H](O)[C@H](O)[C@H]1O)[C@H](O)[C@H](O)CCCCCCCCCCCCCC` [CI058, (2S,3S,4R)-1-(6-Deoxy-6-((2-((4-(5,5-difluoro-1,3,7,9-tetramethyl-5H-4λ4,5λ4-dipyrrolo[1,2-c:2′,1′-f][1,3,2]diazaborinin-10-yl)phenyl)amino)-2-oxoethyl)thio)-α-D-galactopyranosyloxy)-2-hexacosanoylamino-3,4-octadecandiol], for which the “liver TRM cell accumulation in NKT cell-deficient mice” value in the experiment on liver TRM cells is reported as “no liver TRM cell accumulation is induced”. The “overall TRM cell accumulation in the liver” value in experiment [1] (agonist in LPX-mOVA vaccine, OT-I transfer, liver 30 days later) is “significantly better at inducing accumulation of TRM cells”. Besides, the “proportion of liver TRM among all vaccine-induced antigen-specific T cells (TRM cell-inducing capability)” value in experiment [1] (agonist in LPX-mOVA vaccine, OT-I transfer, liver 30 days later, relative to α-GalCer vaccine) is given as “superior liver TRM cell-inducing agonist”. Besides, the “proportion of antigen-specific TRM cells, liver vs spleen” value in experiment [1] (malaria model vaccination, LPX-mOVA with CI058, 30 days) is on record as “significant changes in proportion of antigen-specific TRM cells, which is more pronounced in liver compared to spleen”. The “protection against sporozoite challenge” value in experiment [2] (200 OVA-expressing P. berghei sporozoites 30 days after LPX-mOVA vaccination, OT-I transfer) is on record as “provide protection against challenge with P. berghei sporozoites”. Also, the blood parasitemia entry in experiment [2] (after challenge with OVA-expressing P. berghei sporozoites) was “significantly limit blood parasitemia”.

Values taken from US20250049904A1, “IMMUNOSTIMULATORY COMPOSITIONS” (VICTORIA LINK LIMITED, priority 2021, published 2025).
